Laboratory results from ChEMBL document CHEMBL1141466, “Potent memapsin 2 (beta-secretase) inhibitors: design, synthesis, protein-ligand X-ray structure, and in vivo evaluation” (Bioorg Med Chem Lett, 2008).

Experiments:
Beta-secretase 1 [1] = biological target: T1, Beta-secretase 1 (Homo sapiens, UniProt P56817)
Description: Binding affinity to recombinant memapsin 2

Beta-secretase 1 [2] = biological target: T1, Beta-secretase 1; remark: listed apart in the source
Description: Inhibition of memapsin 2 expressed in CHO cells

T1 sequence (P56817 whole entry): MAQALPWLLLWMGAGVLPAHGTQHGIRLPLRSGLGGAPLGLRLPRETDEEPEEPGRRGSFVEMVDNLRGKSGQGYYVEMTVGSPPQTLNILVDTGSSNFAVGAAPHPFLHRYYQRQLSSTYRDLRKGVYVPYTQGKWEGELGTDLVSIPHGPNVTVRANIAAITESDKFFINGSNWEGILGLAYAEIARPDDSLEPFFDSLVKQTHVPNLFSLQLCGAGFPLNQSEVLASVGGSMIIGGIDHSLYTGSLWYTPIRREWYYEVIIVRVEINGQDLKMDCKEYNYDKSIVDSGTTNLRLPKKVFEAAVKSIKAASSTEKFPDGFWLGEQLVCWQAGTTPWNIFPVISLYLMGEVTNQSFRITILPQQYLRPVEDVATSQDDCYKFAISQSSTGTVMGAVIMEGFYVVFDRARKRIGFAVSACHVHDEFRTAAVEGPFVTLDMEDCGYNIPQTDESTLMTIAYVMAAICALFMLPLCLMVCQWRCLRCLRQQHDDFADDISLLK

SMILES	Ki (Beta-secretase 1 [1]) [nM]	IC50 (Beta-secretase 1 [2]) [nM]
CC(C)NC(=O)[C@@H](NC[C@@H](O)[C@H](Cc1ccccc1)NC(=O)c1cc(C(=O)N[C@H](C)c2ccccc2)cc(N(C)S(C)(=O)=O)c1)C(C)C	564	–
CC(C)NC[C@@H](O)[C@H](Cc1ccccc1)NC(=O)c1cc(C(=O)N[C@H](C)c2ccccc2)cc(N(C)S(C)(=O)=O)c1	425	1100
C[C@@H](NC(=O)c1cc(C(=O)N[C@@H](Cc2ccccc2)[C@H](O)CNCc2ccc3ccn(S(C)(=O)=O)c3c2)cc(N(C)S(C)(=O)=O)c1)c1ccccc1	27	200
Cc1nc(COC(=O)N[C@@H](CS(C)(=O)=O)C(=O)N[C@@H](CC(C)C)[C@@H](O)C[C@@H](C)C(=O)N[C@H](C(=O)NC(C)(C)C)C(C)C)c(C)o1	0.12	–

Next, values leading:

Ki (Beta-secretase 1 [1]) [nM]	IC50 (Beta-secretase 1 [2]) [nM]	SMILES
916	–	COc1cccc(CNC[C@@H](O)[C@H](CC(C)C)NC(=O)c2cc(C(=O)N[C@H](C)c3ccccc3)cc(N(C)S(C)(=O)=O)c2)c1
552	–	COc1cccc(CNC[C@@H](O)[C@H](Cc2ccccc2)NC(=O)c2cc(C(=O)NCc3nc(C)oc3C)cc(N(C)S(C)(=O)=O)c2)c1
894	–	COc1cccc(CNC[C@@H](O)[C@H](Cc2ccccc2)NC(=O)c2cc(C(=O)NC(C)c3nc(C)oc3C)cc(N(C)S(C)(=O)=O)c2)c1 (some centres not stated)
15000	–	COc1cccc(CNC[C@@H](O)[C@H](Cc2ccccc2)NC(=O)[C@H](CS(C)(=O)=O)NC(=O)OCc2nc(C)oc2C)c1
230	620	C[C@@H](NC(=O)c1cc(C(=O)N[C@@H](Cc2ccccc2)[C@H](O)CNCc2ccc3cc[nH]c3c2)cc(N(C)S(C)(=O)=O)c1)c1ccccc1
